Reference: EP2292624A1, “Process for the purification of olanzapine” (LEK Pharmaceuticals d.d., priority 2009, dated 2011)
Where a name gives a salt, the structure may show the parent alone.

Settings: water; printed as 'approximately up to about'

Cc1cc2c(s1)Nc1ccccc1N=C2N1CCN(C)CC1 [oxalic acid addition salt of olanzapine]
aqueous solubility: up to 800 mg/mL
